This data set in a line: wn = mass fraction of the nth substance listed. The note with it: 323.15 K, 101.3 kPa, Liquid, Vibrating tube method.

± gives the expanded uncertainty stated by the source.

For orientation: mass density means mass per unit of volume. On to `[Ca+2].[Cl-].[Cl-]` [calcium chloride] + O, for which the mass density (w1 = 0.566) came out at 1575.9 ± 24 kg/m3.
With `O=[PH2][O-].[Na+]` [sodium phosphinate] + O, the mass density (w1 = 0.5786) is 1415.2 ± 24 kg/m3.
As for `O=[PH2][O-].O=[PH2][O-].[Ca+2]` [calcium hypophosphite] + O, the mass density (w1 = 0.1326) is listed as 1073.2 ± 24 kg/m3.
